In patent US20230310388A1, “Methods and Compositions for Treating Fungal Infections” (Neoculi Pty Ltd, priority 2020, published 2023):
“And” between values parts separate entries of the source, which are not always exact repeats. Equal values may be shown once.

Experiments:
[1] = system: Candida albicans ATCC14053; experiment: Broth micro-dilution screen at 16 μg/mL and MIC (Example 9); type: cell-based; conditions: for Screen at 16 μg/mL: single concentration 16 μg/mL, Growth or No growth of C. albicans ATCC14053; for MIC: C. albicans ATCC14053, test range 0.25-64 μg/mL, duplicate
Procedure: The antifungal activity of 201 NCL analogs against Candida albicans ATCC14053 in vitro was investigated. A broth micro-dilution method was used, according to CLSI guidelines as described. NCL analogs were dissolved in DMSO and originally screened at a single concentration of 16 μg/mL.

[2] = system: Cryptococcus neoformans; experiment: CLSI broth microdilution MIC (Example 4); type: cell-based
Procedure: (§1) Antifungal minimum inhibitory concentration (MIC) testing was undertaken as recommended by the CLSI. Briefly, antifungal susceptibility tests were performed for amphotericin B, robenidine (NCL812) and robenidine (NCL) analogs (NCL004, NCL020, NCL023, NCL024, NCL062, NCL094, NCL097, NCL110, NCL113, NCL114, NCL115, NCL135, NCL139, NCL180, NCL181, NCL195, NCL219, NCL220, NCL228, NCL247, NCL250, NCL259, NCL260, NCL263, NCL265, NCL269, NCL274) by standard broth microdilution method (CLSI) in RPMI 1640. Various concentrations (ranging from high to low) of the selected compounds were prepared in RPMI 1640 medium by double dilution in 96-well microtitre plates. Each well contained an inoculum of approximately 2×10^3 cells/mL. The wells without addition of drugs served as negative (no inoculum) and positive (inoculum only) growth controls. Microtitre plates were incubated at 35° C. for 24-48 hours. […] Antifungal MICs were determined for each isolate in duplicate; if the values obtained were different, the MIC test was repeated a third time.

[3] = system: Candida albicans; experiment: CLSI broth microdilution MIC (Example 4); type: cell-based
Procedure: as §1

[4] = system: C. gattii; experiment: CLSI broth microdilution MIC (Example 6); type: cell-based, Cryptococcus gattii
Procedure: (§2) Antifungal minimum inhibitory concentration (MIC) testing was undertaken as recommended by the CLSI (1). Briefly, antifungal susceptibility tests were performed for amphotericin B, robenidine (NCL812) and 10 robenidine analogs (NCL023, NCL024, NCL097, NCL113, NCL115, NCL195, NCL219, NCL220, NCL259, NCL265) by standard broth microdilution method (CLSI) in RPMI 1640. Various concentrations (ranging from high to low) of the selected compounds were prepared in RPMI 1640 medium by double dilution in 96-well microtitre plates. Each well contained an inoculum of approximately 2×10^3 cells/mL. The wells without addition of drugs served as negative (no inoculum) and positive (inoculum only) growth controls. Microtitre plates were incubated at 35° C. for 24-48 hours. […] Antifungal MICs were determined for each isolate in duplicate; if the values obtained were different, the MIC test was repeated a third time.

[5] = system: Cryptococcus neoformans; experiment: CLSI broth microdilution MIC (Example 6); type: cell-based
Procedure: as §2

[6] = system: Candida albicans; experiment: CLSI broth microdilution MIC (Example 6); type: cell-based
Procedure: as §2

[7] = system: Cryptococcus neoformans; experiment: CLSI broth microdilution MIC (Example 5); type: cell-based
Procedure: as §2, with “CLSI.” for “CLSI (1).”, “and” for “and 10”, “(NCL23, NCL24, NCL97,” for “(NCL023, NCL024, NCL097,”

[8] = system: Candida albicans; experiment: CLSI broth microdilution MIC (Example 5); type: cell-based; conditions: for activity against one or more isolates of Cryptococcus neoformans and Candida albicans: summary in words
Procedure: as §2, with “CLSI.” for “CLSI (1).”, “and” for “and 10”, “(NCL23, NCL24, NCL97,” for “(NCL023, NCL024, NCL097,”

[9] = human clinical isolate C. gatti 17-90232099
[10] = human clinical isolate C. gattii 16-90050373
[11] = human clinical isolate C. gattii 17-90028211
[12] = human clinical isolate C. gattii 17-90028217
[13] = human clinical isolate C. gattii 17-90028242
[14] = human clinical isolate C. neoformans serotype A/D hybrid
[15] = human clinical isolate C. neoformans var grubii 16-90050434
[16] = human clinical isolate C. neoformans var grubii 17-90028233
[17] = human clinical isolate C. neoformans var grubii 17-93996464
[18] = human clinical isolate C. neoformans var grubii 17-93996964
[19] = clinical isolate C. albicans 12-93301752 Azole Resistant
[20] = clinical isolate C. albicans 14-90045999 Azole Resistant
[21] = clinical isolate C. albicans 15-45171061
[22] = clinical isolate C. albicans 15-91329871
[23] = clinical isolate C. albicans 16-24136919 Azole Resistant
[24] = clinical isolate C. albicans 16-46177400
[25] = clinical isolate C. albicans 16-90050810
[26] = clinical isolate C. albicans 16-90054237
[27] = clinical isolate C. albicans 18-144-00196
[28] = clinical isolate C. albicans 18-148-08188 Azole Resistant

With `Cl.N=C(NN=Cc1ccccc1Cl)NN=Cc1ccccc1Cl` [NCL020] the “Screen at 16 μg/mL” value [1] was “Growth”, the “MIC at 24-48 hours” value ([2]; Cryptococcus neoformans SA1) was over 32 µg/mL and the “MIC at 24-48 hours” value ([2]; Cryptococcus neoformans SA2) was over 32 µg/mL. For the same compound, the “MIC at 24-48 hours” value ([3]; Candida albicans ATCC 90028) was over 32 µg/mL and the “MIC at 24-48 hours” value ([3]; Candida albicans SA3) was over 32 µg/mL.
For `Cl.N=C(NN=Cc1cccc(F)c1)NN=Cc1cccc(F)c1` [NCL023], the MIC [1] was 8 µg/mL and 16 µg/mL, the “Screen at 16 μg/mL” value [1] was “No growth” and the “MIC at 24-48 hours” value ([2]; Cryptococcus neoformans SA1) was 16 µg/mL. The “MIC at 24-48 hours” value ([2]; Cryptococcus neoformans SA2) was 16 µg/mL, the “MIC at 24-48 hours” value ([3]; Candida albicans ATCC 90028) was 32 µg/mL and the “MIC at 24-48 hours” value ([3]; Candida albicans SA3) was 32 µg/mL. For the same compound, the “antifungal activity against the two isolates of Candida albicans” value ([3]; summary in words) was “high antifungal activity”, the MIC [4, 9] was 8 µg/mL and the MIC [4, 10] was 8 µg/mL. It also gave an MIC [4, 11] of 16 µg/mL, an MIC [4, 12] of 16 µg/mL and an MIC [4, 13] of 8 µg/mL. It also gave an MIC ([5]; Cryptococcus neoformans SA1) of 16 µg/mL, an MIC ([5]; Cryptococcus neoformans SA2) of 16 µg/mL and an MIC [5, 14] of 8 µg/mL. It also gave an MIC [5, 15] of 8 µg/mL, an MIC [5, 16] of 8 µg/mL and an MIC [5, 17] of 8 µg/mL. The MIC [5, 18] was 8 µg/mL, the MIC ([6]; C. albicans SA3) was 32 µg/mL and the MIC ([6]; Candida albicans ATCC 90028) was 32 µg/mL. It also gave an MIC ([7]; Cryptococcus neoformans SA1) of 16 µg/mL, an MIC ([7]; Cryptococcus neoformans SA2) of 16 µg/mL and an MIC ([8]; C. albicans SA3) of 32 µg/mL. For the same compound, the MIC ([8]; Candida albicans ATCC 90028) was 32 µg/mL, the MIC [8, 19] was 16 µg/mL and the MIC [8, 20] was over 16 µg/mL. The MIC [8, 21] was 16 µg/mL, the MIC [8, 22] was 16 µg/mL and the MIC [8, 23] was 8 µg/mL. For the same compound, the MIC [8, 24] was over 16 µg/mL, the MIC [8, 25] was over 16 µg/mL and the MIC [8, 26] was 16 µg/mL. The MIC [8, 27] was 16 µg/mL, the MIC [8, 28] was 16 µg/mL and the “activity against one or more isolates of Cryptococcus neoformans and Candida albicans” value [8] was “highly active”.
With `Cl.N#Cc1ccc(C=NNC(=N)NN=Cc2ccc(C#N)cc2)cc1` [NCL024] the “Screen at 16 μg/mL” value [1] was “Growth”, the “MIC at 24-48 hours” value ([2]; Cryptococcus neoformans SA1) was over 32 µg/mL and the “MIC at 24-48 hours” value ([2]; Cryptococcus neoformans SA2) was 32 µg/mL. For the same compound, the “MIC at 24-48 hours” value ([3]; Candida albicans ATCC 90028) was over 32 µg/mL, the “MIC at 24-48 hours” value ([3]; Candida albicans SA3) was over 32 µg/mL and the MIC [4, 9] was 32 µg/mL. For the same compound, the MIC [4, 10] was 16 µg/mL, the MIC [4, 11] was 8 µg/mL and the MIC [4, 12] was 32 µg/mL. For the same compound, the MIC [4, 13] was 32 µg/mL, the MIC ([5]; Cryptococcus neoformans SA1) was over 32 µg/mL and the MIC ([5]; Cryptococcus neoformans SA2) was 32 µg/mL. The MIC [5, 14] was 32 µg/mL, the MIC [5, 15] was 32 µg/mL and the MIC [5, 16] was 16 µg/mL. It also gave an MIC [5, 17] of 32 µg/mL, an MIC [5, 18] of 32 µg/mL and an MIC ([6]; C. albicans SA3) of over 32 µg/mL. It also gave an MIC ([6]; Candida albicans ATCC 90028) of over 32 µg/mL, an MIC ([7]; Cryptococcus neoformans SA1) of over 32 µg/mL and an MIC ([7]; Cryptococcus neoformans SA2) of 32 µg/mL. The MIC ([8]; C. albicans SA3) was over 32 µg/mL, the MIC ([8]; Candida albicans ATCC 90028) was over 32 µg/mL and the MIC [8, 19] was 8 µg/mL. For the same compound, the MIC [8, 20] was 4 µg/mL, the MIC [8, 21] was 16 µg/mL and the MIC [8, 22] was over 16 µg/mL. For the same compound, the MIC [8, 23] was 8 µg/mL, the MIC [8, 24] was over 16 µg/mL and the MIC [8, 25] was over 16 µg/mL. It also gave an MIC [8, 26] of 4 µg/mL, an MIC [8, 27] of 16 µg/mL and an MIC [8, 28] of over 16 µg/mL. The “activity against one or more isolates of Cryptococcus neoformans and Candida albicans” value [8] was “highly active”.
With `Cl.N=C(NN=CC1CCCCC1)NN=CC1CCCCC1` [NCL094] the “Screen at 16 μg/mL” value [1] was “Growth”, the “MIC at 24-48 hours” value ([2]; Cryptococcus neoformans SA1) was over 32 µg/mL and the “MIC at 24-48 hours” value ([2]; Cryptococcus neoformans SA2) was over 32 µg/mL. For the same compound, the “MIC at 24-48 hours” value ([3]; Candida albicans ATCC 90028) was over 32 µg/mL and the “MIC at 24-48 hours” value ([3]; Candida albicans SA3) was over 32 µg/mL.
`Cl.N=C(NN=Cc1ccc([N+](=O)[O-])cc1)NN=Cc1ccc([N+](=O)[O-])cc1` [NCL110] was tested, and the “Screen at 16 μg/mL” value [1] was “Growth”, the “MIC at 24-48 hours” value ([2]; Cryptococcus neoformans SA1) was over 32 µg/mL and the “MIC at 24-48 hours” value ([2]; Cryptococcus neoformans SA2) was over 32 µg/mL. The “MIC at 24-48 hours” value ([3]; Candida albicans ATCC 90028) was over 32 µg/mL and the “MIC at 24-48 hours” value ([3]; Candida albicans SA3) was over 32 µg/mL.
For `Cl.N=C(NN=Cc1cc(Cl)cc(Cl)c1)NN=Cc1cc(Cl)cc(Cl)c1` [NCL114], the “Screen at 16 μg/mL” value [1] was “Growth”, the “MIC at 24-48 hours” value ([2]; Cryptococcus neoformans SA1) was over 32 µg/mL and the “MIC at 24-48 hours” value ([2]; Cryptococcus neoformans SA2) was over 32 µg/mL. For the same compound, the “MIC at 24-48 hours” value ([3]; Candida albicans ATCC 90028) was over 32 µg/mL and the “MIC at 24-48 hours” value ([3]; Candida albicans SA3) was over 32 µg/mL.
For `COc1cc(Br)c(C=NNC(=N)NN=Cc2cc(OC)c(OC)cc2Br)cc1OC.Cl` [NCL135], the “Screen at 16 μg/mL” value [1] was “Growth”, the “MIC at 24-48 hours” value ([2]; Cryptococcus neoformans SA1) was over 32 µg/mL and the “MIC at 24-48 hours” value ([2]; Cryptococcus neoformans SA2) was over 32 µg/mL. For the same compound, the “MIC at 24-48 hours” value ([3]; Candida albicans ATCC 90028) was over 32 µg/mL and the “MIC at 24-48 hours” value ([3]; Candida albicans SA3) was over 32 µg/mL.
With `Cl.N=C(NN=Cc1cnc2ccccc2c1)NN=Cc1cnc2ccccc2c1` [NCL139] the MIC [1] was under 0.5 µg/mL, the “Screen at 16 μg/mL” value [1] was “No growth” and the “MIC at 24-48 hours” value ([2]; Cryptococcus neoformans SA1) was over 32 µg/mL. The “MIC at 24-48 hours” value ([2]; Cryptococcus neoformans SA2) was over 32 µg/mL, the “MIC at 24-48 hours” value ([3]; Candida albicans ATCC 90028) was over 32 µg/mL and the “MIC at 24-48 hours” value ([3]; Candida albicans SA3) was over 32 µg/mL.
